Results on 27 molecules are retold here after ChEMBL document CHEMBL1140275, “Discovery of a novel and potent series of dianilinopyrimidineurea and urea isostere inhibitors of VEGFR2 tyrosine kinase” (Bioorg Med Chem Lett, 2005).

One assay relates to HUVEC. Description: Inhibitory concentration against human umbilical vein endothelial cells (HUVECs) induced by VEGF. Format: functional, cell-based.
In assay [1] the target is Vascular endothelial growth factor receptor 2 (Homo sapiens, UniProt P35968). As to the kind of experiment: Inhibitory concentration against human VEGFR2 kinase.
Sequence of Vascular endothelial growth factor receptor 2 (P35968 whole entry): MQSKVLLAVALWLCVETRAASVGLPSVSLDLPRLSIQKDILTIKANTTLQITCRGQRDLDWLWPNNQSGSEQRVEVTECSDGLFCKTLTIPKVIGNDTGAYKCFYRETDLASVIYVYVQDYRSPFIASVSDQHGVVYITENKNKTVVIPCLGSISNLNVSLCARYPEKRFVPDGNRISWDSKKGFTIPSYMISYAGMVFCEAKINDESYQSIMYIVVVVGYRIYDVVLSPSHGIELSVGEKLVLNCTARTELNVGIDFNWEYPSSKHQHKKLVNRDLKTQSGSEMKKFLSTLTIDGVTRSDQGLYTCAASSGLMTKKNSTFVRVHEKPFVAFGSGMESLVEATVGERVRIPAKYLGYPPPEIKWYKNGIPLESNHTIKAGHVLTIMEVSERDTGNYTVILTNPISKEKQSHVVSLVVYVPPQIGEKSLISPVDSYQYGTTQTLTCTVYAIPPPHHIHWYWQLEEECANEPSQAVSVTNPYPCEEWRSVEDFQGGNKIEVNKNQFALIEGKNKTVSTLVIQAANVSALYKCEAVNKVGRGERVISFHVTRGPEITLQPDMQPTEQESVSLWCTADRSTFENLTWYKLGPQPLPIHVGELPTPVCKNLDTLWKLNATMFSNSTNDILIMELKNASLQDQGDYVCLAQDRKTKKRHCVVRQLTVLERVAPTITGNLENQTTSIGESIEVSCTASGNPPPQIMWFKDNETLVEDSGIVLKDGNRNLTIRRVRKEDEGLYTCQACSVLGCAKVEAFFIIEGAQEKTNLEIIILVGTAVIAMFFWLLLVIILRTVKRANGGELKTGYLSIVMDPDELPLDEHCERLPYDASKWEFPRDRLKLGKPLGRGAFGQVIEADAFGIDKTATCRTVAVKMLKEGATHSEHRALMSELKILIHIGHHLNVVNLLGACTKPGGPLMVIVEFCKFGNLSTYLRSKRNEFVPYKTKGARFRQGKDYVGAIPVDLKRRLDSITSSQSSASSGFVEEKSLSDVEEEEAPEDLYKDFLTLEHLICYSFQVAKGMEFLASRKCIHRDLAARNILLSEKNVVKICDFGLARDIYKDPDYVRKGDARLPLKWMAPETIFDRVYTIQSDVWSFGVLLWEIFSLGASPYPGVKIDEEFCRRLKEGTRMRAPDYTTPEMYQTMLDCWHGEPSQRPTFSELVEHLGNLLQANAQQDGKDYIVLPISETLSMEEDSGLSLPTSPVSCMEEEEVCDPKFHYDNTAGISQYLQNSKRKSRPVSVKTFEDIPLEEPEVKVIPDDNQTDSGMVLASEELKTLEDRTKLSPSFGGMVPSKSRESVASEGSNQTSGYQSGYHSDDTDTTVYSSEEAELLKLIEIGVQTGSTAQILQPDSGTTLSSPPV

Usually IC50 stands for the concentration at which inhibition is half-maximal.

With `CN(c1ccc(NC(=O)Nc2ccccc2)cc1)c1ccnc(Nc2cccc(CS(C)(=O)=O)c2)n1`, in the assay with HUVEC, half-maximal inhibition (IC50) was put at 0.2 nM. On to `CN(c1ccc(NC(=O)Nc2cc(C(F)(F)F)ccc2F)cc1)c1ccnc(Nc2ccc(S(N)(=O)=O)cc2)n1`, for which the concentration for half-maximal inhibition (IC50) was determined as 1 nM in assay [1] and 8 nM in the assay on HUVEC. In the same order, the values of `CCNC(=O)Nc1ccc(N(C)c2ccnc(Nc3ccc(CS(C)(=O)=O)cc3)n2)cc1` are 26 nM and 27 nM. Regarding `CN(c1ccc(NC(=O)Oc2ccccc2)cc1)c1ccnc(Nc2cccc(CS(C)(=O)=O)c2)n1`, the 50% inhibitory concentration (IC50) in the assay with HUVEC amounted to 224 nM. Consider `CN(c1ccc(NS(=O)(=O)Cc2ccccc2)cc1)c1ccnc(Nc2cccc(CS(C)(=O)=O)c2)n1`, for which it took 350 nM to reach half-maximal inhibition with HUVEC (IC50).

As to `CN1CCN(C(=O)c2ccc(NC(=O)Nc3ccc(N(C)c4ccnc(Nc5ccc(CS(C)(=O)=O)cc5)n4)cc3)cc2)CC1`, the IC50 in assay [1] was 150 nM; with HUVEC, 516 nM. With `CN(c1ccc(NC(=O)Nc2ccc(OC(F)(F)F)cc2)cc1)c1ccnc(Nc2cccc(CS(C)(=O)=O)c2)n1`, the IC50 came out at 6 nM in assay [1] and 7 nM in the assay with HUVEC.

For `CN1CCN(Cc2ccc(NC(=O)Nc3ccc(N(C)c4ccnc(Nc5ccc(CS(C)(=O)=O)cc5)n4)cc3)cc2)CC1`, the concentration for half-maximal inhibition (IC50) in assay [1] came to 4 nM; with HUVEC it was 2 nM. In the same order, the values of `CN(C)CCNC(=O)Nc1ccc(N(C)c2ccnc(Nc3ccc(CS(C)(=O)=O)cc3)n2)cc1` are 3110 nM and 2980 nM. In the same order, the values of `CN(c1ccc(NC(=O)Nc2ccc(OC(F)(F)F)cc2)cc1)c1ccnc(Nc2ccc(S(N)(=O)=O)cc2)n1` are 2 nM and 37 nM. For `CN(C)CCNC(=O)Nc1ccc(N(C)c2ccnc(Nc3cccc(CS(C)(=O)=O)c3)n2)cc1`, in that order: 681 nM and 530 nM.

As for `CCCCNC(=O)Nc1ccc(N(C)c2ccnc(Nc3cccc(CS(C)(=O)=O)c3)n2)cc1`, the IC50 was 29 nM in assay [1] and 2 nM with HUVEC. In the case of `CN(c1ccc(NC(=N)Nc2ccccc2)cc1)c1ccnc(Nc2cccc(CS(C)(=O)=O)c2)n1`, the IC50 in the assay on HUVEC was 596 nM.

`CN(c1ccc(NC(=O)Nc2cc(C(F)(F)F)ccc2F)cc1)c1ccnc(Nc2ccc(CS(C)(=O)=O)cc2)n1`: the IC50 (in assay [1]; in the assay on HUVEC) was 2 nM in each case. In turn, `CN(c1ccc(N/C(S)=N/c2ccccc2)cc1)c1ccnc(Nc2cccc(CS(C)(=O)=O)c2)n1` showed a 50% inhibitory concentration (IC50) with HUVEC of 6 nM. For `CN(c1ccc(NC(=O)Nc2cc(C(F)(F)F)ccc2F)cc1)c1ccnc(Nc2cccc(CS(C)(=O)=O)c2)n1`, the IC50 in assay [1] amounted to 35 nM; in the assay on HUVEC, 7 nM. The molecule `CN(c1ccc(NC(=O)Cc2ccccc2)cc1)c1ccnc(Nc2cccc(CS(C)(=O)=O)c2)n1` had an IC50 in the assay on HUVEC of 49 nM. Turning to `CN(c1ccc(NC(=O)Nc2cc(C(F)(F)F)ccc2F)cc1)c1ccnc(Nc2cccc(S(N)(=O)=O)c2)n1`, the results for the half-inhibitory concentration (IC50) (in assay [1]; in the assay with HUVEC) were 1 nM and 10 nM, respectively.

As for `CN(c1ccc(NC(=O)NCCc2ccccc2)cc1)c1ccnc(Nc2cccc(CS(C)(=O)=O)c2)n1`, the half-maximal inhibitory concentration (IC50) came out at 11 nM in assay [1] and 10 nM with HUVEC.

For `CC(=O)c1ccc(NC(=O)Nc2ccc(N(C)c3ccnc(Nc4cccc(CS(C)(=O)=O)c4)n3)cc2)cc1`, the IC50 came out at 3 nM in assay [1] and 2 nM in the assay on HUVEC. Consider `CN(c1ccc(NC(=O)Nc2ccccc2)cc1)c1ccnc(Nc2cccc(S(N)(=O)=O)c2)n1`, for which 2 nM corresponded to half-maximal inhibition with HUVEC (IC50). On to `CN(c1ccc(NC(=O)NCCN2CCOCC2)cc1)c1ccnc(Nc2ccc(CS(C)(=O)=O)cc2)n1`, for which the half-inhibitory concentration (IC50) stood at 990 nM in assay [1] and 471 nM in the assay on HUVEC.

As for `CN(c1ccc(NC(=O)N2CCN(CCCN3CCOCC3)CC2)cc1)c1ccnc(Nc2ccc(CS(C)(=O)=O)cc2)n1`, the half-maximal inhibitory concentration (IC50) in assay [1] was found to be 4490 nM; in the assay with HUVEC it was 850 nM. For the molecule `CN(c1ccc(NC(=O)NC2CCCC2)cc1)c1ccnc(Nc2cccc(CS(C)(=O)=O)c2)n1`, the 50% inhibitory concentration (IC50) is 31 nM in assay [1] and 1 nM with HUVEC. For `CCNC(=O)Nc1ccc(N(C)c2ccnc(Nc3cccc(CS(C)(=O)=O)c3)n2)cc1`, in that order: 17 nM and 3 nM. For `CN(c1ccc(NC(=O)Nc2ccc(OC(F)(F)F)cc2)cc1)c1ccnc(Nc2cccc(S(N)(=O)=O)c2)n1` [GW806742X], in that order: 2 nM and 5 nM. In the same order, the values of `CN(c1ccc(NC(=O)Nc2c(Cl)cccc2Cl)cc1)c1ccnc(Nc2cccc(CS(C)(=O)=O)c2)n1` [GW809897X] are 65 nM and 29 nM.
